Source: patent publication US20030207819A1, “Compositions and methods for treating inflammatory connective tissue diseases” (priority 2002, published 2003)

Columns and labels:
Type in all cases: in vivo, human
[1] = tested on: patient with undifferentiated connective tissue disease; assay: Example 6: clarithromycin trial, VAS and joint assessment; details: person
Excerpt: A patient, was first seen in September 1999. […] They have used a number of anti-inflammatory agents frequently for therapy.
On the basis of the findings, including recurrent episodes of arthritis, Raynaud's, and thickening of the hands, connective tissue disease diagnoses such as Mixed Connective Tissue Disease or Progressive Systemic Sclerosis were considered.
Based on these findings, a diagnosis of Undifferentiated Connective Tissue Disease was made. Therapy was initiated with hydroxychloroquine ([…]®, Sanofi-Synthelabo, Inc.) and a non-steroidal anti-inflammatory agent. They utilized steroid dose packs periodically for symptomatic relief of their peripheral symptoms as well as their neck symptoms.
On examination, they had symptoms and findings much as before and a diagnosis of Undifferentiated Connective Tissue Disease was made. The patient agreed to undergo a trial with clarithromycin.
Following screening and baseline evaluations, the patient was begun on clarithromycin (BIAXIN®, Abbott Laboratories).
25, 2003 (“Visit 3”), for their first recheck visit.
When seen for their one month evaluation, the patient had been off steroid medication for approximately ten days.
Further assessment of their status was made on Apr. 13, 2003 at which time they were now off steroids for almost a one-month period.
Patient was again seen Apr. 21, 2003 (“Visit Four”), for their formal two-month follow-up on clarithromycin.

[2] = tested on: patient with undifferentiated connective tissue disease; assay: Example 1: clinical observation of patient on clarithromycin; details: person; switched from clarithromycin to azithromycin 500 mg day 1, 250 mg/day days 2 through 5
Excerpt: We elected to continue them on this antibiotic. […] Because the patient was on Lodine (NSAID) at the same time, we elected to see if they could stop the Lodine and still have relief of symptoms.

[3] = tested on: patient with low-grade connective tissue symptoms; assay: Example 5: clarithromycin study, VAS and joint assessment; details: person
Excerpt: In 1991, it was elected to begin the patient on hydroxychloroquine ([…]®, Sanofi-Synthelabo, Inc.) given their low-grade connective tissue symptoms not responding to non-steroidal anti-inflammatory therapy. […] A trial of hydroxychloroquine was again initiated to see how they would tolerate it. […] Hydroxychloroquine was discontinued when they wanted to attempt getting pregnant again. Therapy most recently consisted of non-steroidal inflammatory agents and physical therapy.
On Feb. 27, 2003, the patient agreed to participate in the clarithromycin study. […] The patient was begun on clarithromycin (BIAXIN®, Abbott Laboratories) 500 mg twice per day.

## CC1(C)S[C@@H]2[C@H](NC(=O)[C@H](N)c3ccc(O)cc3)C(=O)N2[C@H]1C(=O)O [amoxicillin]
[1]; amoxicillin tried on their own
  effect on pain: of no help

## CC[C@H]1OC(=O)[C@H](C)[C@@H](O[C@H]2C[C@@](C)(OC)[C@@H](O)[C@H](C)O2)[C@H](C)[C@@H](O[C@@H]2O[C@H](C)C[C@H](N(C)C)[C@H]2O)[C@](C)(O)C[C@@H](C)CN(C)[C@H](C)[C@@H](O)[C@]1(C)O [azithromycin]
[2]
  Symptoms: no increase in symptoms

## CCN(CCO)CCCC(C)Nc1ccnc2cc(Cl)ccc12 (centres unmarked) [hydroxychloroquine]
[3]; hydroxychloroquine begun 1991, approximately nine months
  reason for discontinuation (adverse effect): weight loss
[1]; hydroxychloroquine with a non-steroidal anti-inflammatory agent, approximately six months
  symptomatic improvement: did not feel significant improvement

## CCN(CC)CCCC(C)Nc1c2ccc(Cl)cc2nc2ccc(OC)cc12 (centres unmarked) [quinacrine]
[3]; quinacrine approximately one year, non-toxic condition
  reason for discontinuation (skin colour): too yellow
